Experimental data as given in patent publication EP0633316A1, “Lys-aminopeptidase PepN from lactobacillus delbruckii ssp. Lactis, nucleic acids coding for it, and its use in fermentation processes” (EUROPEAN ECONOMIC COMMUNITY E.E.C., priority 1993, dated 1995).
Like-named read-outs stand apart in the source and are kept apart here. Non-standard residues stand in square brackets, D forms with d. Residues, ends and D or L forms follow the SMILES beside them. *: point of attachment. Sta = CC(C)C[C@H](N)[C@@H](O)CC(=O)O; pNA = O=[N+]([O-])c1ccc(N*)cc1; Isovaleryl = CC(C)CC(=O)*

T1: PepN (Lactobacillus delbrueckii subsp. lactis, UniProt P37896)
T1 construct: made in house; host or cells: E. coli CM89 (pepN-deficient) harbouring plasmid pUK13
T1 sequence (P37896 1-843): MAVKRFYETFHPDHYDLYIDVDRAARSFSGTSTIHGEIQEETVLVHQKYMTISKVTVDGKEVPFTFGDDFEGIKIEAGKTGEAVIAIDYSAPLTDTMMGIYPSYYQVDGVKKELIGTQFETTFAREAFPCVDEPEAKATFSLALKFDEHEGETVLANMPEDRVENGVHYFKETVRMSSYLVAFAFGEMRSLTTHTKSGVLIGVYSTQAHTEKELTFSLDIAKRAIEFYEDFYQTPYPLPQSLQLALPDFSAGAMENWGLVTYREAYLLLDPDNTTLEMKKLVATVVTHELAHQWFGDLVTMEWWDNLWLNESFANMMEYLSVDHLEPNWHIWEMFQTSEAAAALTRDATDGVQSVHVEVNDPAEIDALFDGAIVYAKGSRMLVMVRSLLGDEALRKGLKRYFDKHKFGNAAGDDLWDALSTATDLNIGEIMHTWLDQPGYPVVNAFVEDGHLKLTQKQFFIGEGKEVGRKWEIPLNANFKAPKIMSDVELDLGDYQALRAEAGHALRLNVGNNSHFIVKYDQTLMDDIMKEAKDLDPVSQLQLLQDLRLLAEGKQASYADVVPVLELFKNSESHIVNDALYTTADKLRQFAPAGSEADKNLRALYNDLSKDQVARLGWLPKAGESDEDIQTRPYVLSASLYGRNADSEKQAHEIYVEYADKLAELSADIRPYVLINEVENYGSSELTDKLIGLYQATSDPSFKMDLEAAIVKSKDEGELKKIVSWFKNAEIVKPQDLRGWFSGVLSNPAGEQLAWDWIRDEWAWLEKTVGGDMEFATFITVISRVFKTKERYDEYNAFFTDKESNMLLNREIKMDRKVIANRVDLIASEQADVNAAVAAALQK

B1: PepN (Lactobacillus delbrueckii subsp. lactis) (protein)
chain: MAVKRFYETFHPDHYDLYIDVDRAARSFSGTSTIHGEIQEETVLVHQKYMTISKVTVDGKEVPFTFGDDFEGIKIEAGKTGEAVIAIDYSAPLTDTMMGIYPSYYQVDGVKKELIGTQFETTFAREAFPCVDEPEAKATFSLALKFDEHEGETVLANMPEDRVENGVHYFKETVRMSSYLVAFAFGEMRSLTTHTKSGVLIGVYSTQAHTEKELTFSLDIAKRAIEFYEDFYQTPYPLPQSLQLALPDFSAGAMENWGLVTYREAYLLLDPDNTTLEMKKLVATVVTHELAHQWFGDLVTMEWWDNLWLNESFANMMEYLSVDHLEPNWHIWEMFQTSEAAAALTRDATDGVQSVHVEVNDPAEIDALFDGAIVYAKGSRMLVMVRSLLGDEALRKGLKRYFDKHKFGNAAGDDLWDALSTATDLNIGEIMHTWLDQPGYPVVNAFVEDGHLKLTQKQFFIGEGKEVGRKWEIPLNANFKAPKIMSDVELDLGDYQALRAEAGHALRLNVGNNSHFIVKYDQTLMDDIMKEAKDLDPVSQLQLLQDLRLLAEGKQASYADVVPVLELFKNSESHIVNDALYTTADKLRQFAPAGSEADKNLRALYNDLSKDQVARLGWLPKAGESDEDIQTRPYVLSASLYGRNADSEKQAHEIYVEYADKLAELSADIRPYVLINEVENYGSSELTDKLIGLYQATSDPSFKMDLEAAIVKSKDEGELKKIVSWFKNAEIVKPQDLRGWFSGVLSNPAGEQLAWDWIRDEWAWLEKTVGGDMEFATFITVISRVFKTKERYDEYNAFFTDKESNMLLNREIKMDRKVIANRVDLIASEQADVNAAVAAALQK
notes: made in house; host or cells: E. coli CM89 (pepN-deficient) harbouring plasmid pUK13

Tests used:
Type in all cases: biochemical, Lactobacillus delbrückii ssp. lactis
PepN [1] = target: T1, PepN; assay: Substrate specificity of purified PepN against p-nitroanilide substrates; details: p-nitroanilide substrates 1 mM, 10 min at 37°C, Tris-HCl 10 mM pH 8.0
Method: (§1) For characterization of the enzyme the p-nitroanilide subtrates (Bachem) were dissolved in water and added to the reaction mixture [Tris-HCl 10 mM, pH 8.0, and varying amounts of purified enzyme (1-200 ng)] to a concentration of 1 mM in a volume of 250 µl. Release of p-nitroaniline was measured after a 10 min incubation at 37°C at […] in a LKB Ultrospec plus spectrophotometer. For rapid screening of active fractions during purification of the enzyme, samples were prepared in micro titer plates and measured in a BIORAD model 2550 EIA reader.

PepN [2] = target: T1, PepN; assay: biochemical; details: for activity at 1000 µM: read-out: relative activity
Method: The percentages of relative activity indicated above, correspond to residual activities after addition of the inhibitor as compared with the control without inhibitor. The conditions and methods for determination are taken from "Proteolytic enzymes, a practical approach, Beynon R.J. and Bond J.S., Oxford University Press 1989." (Chapter 4, Determination of protease mechanism, Ben M. Dunn).
as §1
To study the mechanism of enzyme action, the inhibitors phenylmethansulphonyl fluoride (PMSF) at a concentration of 1 mM, pepstatin A at 1 µg/ml, L-trans-epoxysuccinyl-leucylamide(4-guanidino)-butane (E-64) at 0.1 mM, and 1,10-phenanthroline or EDTA at 1 mM were added to the enzyme and incubated for 30 min at 37°C. The substrate lys-p-nitroanilide was added and activity was measured spectrophotometrically by the release of p-nitroaniline.

[3] = substrate: NCCCC[C@H](N)C(=O)Nc1ccc([N+](=O)[O-])cc1; assay: Substrate specificity of purified PepN against p-nitroanilide substrates; details: other: Lineweaver-Burk plot; pH 8.0; 37.0 °C
Method: as §1

[4] = PMSF 1 mM, pepstatin A 1 µg/ml, E-64 0.1 mM, 1,10-phenanthroline or EDTA 1 mM, 30 min at 37°C, substrate lys-p-nitroanilide

Molecule	relative activity (%) (PepN [1])	other results
C[C@H](N)C(=O)N1CCC[C@H]1C(=O)Nc1ccc([N+](=O)[O-])cc1 [Ala-Pro-pNA] (H-Ala-Pro-pNA)	0	
C[C@H](N)C(=O)Nc1ccc([N+](=O)[O-])cc1 [Ala-pNA]	12	
CC(C)CC(NC(=O)C1OC1C(=O)O)C(=O)NCCCCN=C(N)N [E-64, L-trans-epoxysuccinyl-leucylamide(4-guanidino)-butane]		effect on enzyme activity (PepN [2]; [4]): no effect
O=C(O)CN(CCN(CC(=O)O)CC(=O)O)CC(=O)O [EDTA]		effect on enzyme activity (PepN [2]): full inhibition; activity at 1000 µM (PepN [2]): 3%
NCC(=O)Nc1ccc([N+](=O)[O-])cc1 [Gly-pNA]	1	
CC(C)C[C@H](N)C(=O)Nc1ccc([N+](=O)[O-])cc1 [Leu-pNA]	19	
NCCCC[C@H](N)C(=O)Nc1ccc([N+](=O)[O-])cc1 [Lys-pNA, lys-p-nitroanilide]	100	
O=S(=O)(F)Cc1ccccc1 [PMSF, phenylmethansulphonyl fluoride]		effect on enzyme activity (PepN [2]; [4]): no effect
CC(C)CC(=O)N[C@H](C(=O)N[C@H](C(=O)N[C@@H](CC(C)C)[C@@H](O)CC(=O)N[C@@H](C)C(=O)N[C@@H](CC(C)C)[C@@H](O)CC(=O)O)C(C)C)C(C)C [Pepstatin A, pepstatin A] (Isovaleryl-VV[Sta]A[Sta]-OH)		effect on enzyme activity (PepN [2]; [4]): no effect
N[C@@H](Cc1ccccc1)C(=O)Nc1ccc([N+](=O)[O-])cc1 [Phe-pNA]	8	
c1cnc2c(c1)ccc1cccnc12 [Phenanthroline, 1,10-phenanthroline]		effect on enzyme activity (PepN [2]; [4]): full inhibition; activity at 1000 µM (PepN [2]; end concentration 1 mM, residual activity after addition of the inhibitor compared with control without inhibitor): 4%
O=C(Nc1ccc([N+](=O)[O-])cc1)[C@@H]1CCCN1 [Pro-pNA]	2	
N[C@@H](Cc1ccc(O)cc1)C(=O)Nc1ccc([N+](=O)[O-])cc1 [Tyr-pNA]	2	
B1		Km [3]: 70 µM
